Like-named read-outs stand apart in the source and are kept apart here.
Tests used:
[1] = tested on: TERA2.cl.SP12 embryonal carcinoma stem cells; test: Flow cytometry of cell-surface differentiation markers SSEA-3, TRA-1–60, A2B5; type: cell-based, human; settings: 10 μM retinoid, 7 days, compared to ATRA and control cultures, Fig. 7A
Description: First, we examined neuronal differentiation in pluripotent TERA2.cl.SP12 human embryonal carcinoma stem cells in response to retinoid treatment. TERA2.cl.SP12 cells have been used in previous studies, [29] to test the ability of synthetic retinoids to induce differentiation along a neuronal or an alternative epithelial pathway at long in vitro timescales of up to three weeks. […] Since the parent carboxylic acid (GZ24) had little activity, the response to GZ22 was a real effect of the ester rather than a result of hydrolysis of the parent ester to the carboxylic acid.
The expression of specific cell surface protein markers (SSEA-3, TRA-1–60, A2B5) on TERA2.cl.SP12 was analyzed using flow cytometry as described previously.[53] Briefly, TERA2.cl.SP12 cells, 2 × 10^5 per 25 cm^2 flask, were seeded 12–24 h before treatment with 10 μM retinoid for 7 days. The primary antibodies used were SSEA-3 (diluted 1:10, University of Iowa Hybridoma Bank), TRA-1–60 (diluted 1:50, Abcam) and neural cell marker A2B5 (diluted 1:40, R&D Systems). Labeled cells were analyzed in a Guave EasyCyte Plus System (Millipore) flow cytometer and thresholds determining the numbers of positively expressing cells were set against the negative control antibody, P3X.

[2] = target: T1, RARγ ligand-binding domain (GST-RAR-γ-LBD) (Homo sapiens, UniProt P13631); test: LanthaScreen TR-FRET RARγ co-activator (receptor binding) assay; type: biochemical; settings: for EC50: estimated EC50, TR-FRET co-activator assay, 4 h incubation, read-out: EC50 (95% confidence range) RARγ; for binding-curve upper asymptote (coactivator recruitment), RARγ: in words, Fig. 6C
T1 construct: purchased Invitrogen
T1 sequence (P13631 185-419 limits assumed): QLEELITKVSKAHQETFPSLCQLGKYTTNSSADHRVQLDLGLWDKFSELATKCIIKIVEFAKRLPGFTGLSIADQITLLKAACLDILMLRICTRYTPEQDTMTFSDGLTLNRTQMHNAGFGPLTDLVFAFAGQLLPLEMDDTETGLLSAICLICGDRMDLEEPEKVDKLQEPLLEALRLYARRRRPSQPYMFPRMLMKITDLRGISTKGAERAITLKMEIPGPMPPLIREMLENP
Experimental: (§1) These predictions were tested through a receptor-binding assay for each RAR isotype (Fig. 6), where the assay signal is dependent on two parameters: the binding affinity of ligand to the RAR LBD, and the affinity of the coactivator for the ligand-LBD complex. For this assay, binding curves and variation in level of the upper asymptote can reflect differences in co-activator affinity for the ligand-LBD complex; variation in affinity of ligand for LBD shifts the midpoint (EC50) of the binding curve, whereas changes in the level of the upper asymptote may result from changes in coactivator affinity for the ligand-LBD complex alone, or in combination with changes in affinity for ligand with LBD.[23]
(§2) The binding interaction of each retinoid with RARα, β and γ were determined in vitro by time-resolved fluorescence resonance energy transfer (TR-FRET) using the LanthaScreen TR-FRET RARα, RARβ, and RARγ co-activator assays according to the manufacturer’s (Invitrogen™) instructions.[23] This uses a terbium-labeled anti-GST antibody, a fluorescein-labeled co activator peptide, and RARα/β/γ ligand-binding domains (LBD) that are tagged with glutathione-S-transferase (GST) in a homogenous assay format. All experiments were performed in black, 384-well low-volume plates in the dark at RT with a 4 h incubation time. The final assay volume was 20 μL and all dilutions were carried out using TR-FRET assay buffer, with a final DMSO concentration of 1%. A mixture of either 3.5 nM GST-RAR-α-LBD or 2.5 nM GST-RAR-β-LBD or 3 nM GST-RAR-γ-LBD with 62.5 nM Tb-anti GST antibody and 30 μM fluorescein-labeled peptide and retinoid or DMSO control was added to each of the wells. Each ligand assay was performed in duplicate and measured using a PHERAstar FS Microplate Reader (BMG Labtech, Ortenberg, Germany) with instrument settings as described in the manufacturer’s instructions for LanthaScreen assays. The TR-FRET signal was expressed as the ratio of the signals at 520 nm and 490 nm. The data were fitted to a three-parameter ligand-binding curve using SigmaPlot (version 12.5, Systat Software Inc., San Jose CA) and normalized to the lower asymptote of each binding curve. […] Since the assay involves interactions between ligand and LBD, and ligand-dependent interactions between the LBD and fluorescein-labeled co activator, the binding assay data were interpreted by simulating these coupled chemical reactions using the biochemical simulator COPASI version 4.3.[23], [54]
(§3) The readout of the Lanthascreen TR-FRET binding assay is based on a Forster resonance energy transfer (FRET) signal generated from the interaction between a terbium-labelled anti-glutathione-S-transferase (GST) antibody and a fluorescein-labelled coactivator peptide. The RAR ligand-binding domain (LBD) is a GST fusion protein and interaction between the LBD and the fluorescein-labelled coactivator peptide is driven by the binding of ligand to the LBD, and detected by the FRET signal from the terbium/fluorescein interaction when the terbium-labelled anti-GST binds the LBD fusion protein. The output of the assay thus relies on two binding interactions: ligand with LBD, and ligand-bound LBD with the coactivator peptide. As both interactions may be affected by the fit of ligand to the binding pocket of the LBD, we used the biochemical pathway simulator COPASI^1 to build a simple model of how the FRET signal output in the assay will vary according to differential changes in the kinetics of the two binding interactions. Reactions were modelled deterministically using mass-action kinetics described by ordinary differential equations (ODE) within COPASI.^1 This model enables us to assess the effect of different rate constants and varying ligand concentration on the formation of the final ternary complex that is the read-out from the Lanthascreen TR-FRET assay.

[3] = target: T2, RARα ligand-binding domain (GST-RAR-α-LBD) (Homo sapiens, UniProt P10276); test: LanthaScreen TR-FRET RARα co-activator (receptor binding) assay; type: biochemical; settings: for EC50: read-out: EC50 (95% confidence range) RARα; for binding-curve upper asymptote (coactivator recruitment), RARα: in words, Fig. 6A
T2 construct: purchased Invitrogen
T2 sequence (P10276 183-417 limits assumed): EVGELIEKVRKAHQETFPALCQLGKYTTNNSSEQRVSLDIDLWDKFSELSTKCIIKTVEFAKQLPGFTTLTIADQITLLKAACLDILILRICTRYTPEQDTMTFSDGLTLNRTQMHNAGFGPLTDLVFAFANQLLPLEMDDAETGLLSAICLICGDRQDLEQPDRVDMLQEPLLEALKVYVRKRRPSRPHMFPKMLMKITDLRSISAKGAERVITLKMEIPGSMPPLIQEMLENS
Experimental: as §1, §2, §3

[4] = estimated EC50, TR-FRET co-activator assay, 4 h incubation

SMILES | proportion of cells expressing differentiation markers SSEA-3, TRA-1–60, A2B5 [1] | EC50 [2] | binding-curve upper asymptote (coactivator recruitment), RARγ [2] | EC50 [3, 4] | binding-curve upper asymptote (coactivator recruitment), RARα [3] | EC50 [3]
CCOCCOc1nc(-c2ccc(C(=O)O)cc2)sc1C [GZ18] | very little activity | 141 nM | very low binding-curve upper asymptotes | 15.1 nM | high curve asymptotes | 
CCOC(=O)c1ccc(-c2nc(-c3ccccc3)c(C)s2)cc1 [GZ22] | Intermediate responses | 383 nM |  | 82 nM | lower asymptotes | 
Cc1sc(-c2ccc(C(=O)O)cc2)nc1-c1ccc2c(c1)C(C)(C)CCC2(C)C [GZ25] | most potent, even compared to ATRA | 98.9 nM | high |  | high curve asymptotes | 8.2 nM

Source: PMC5933457, “Probing biological activity through structural modelling of ligand-receptor interactions of 2,4-disubstituted thiazole retinoids” (Bioorganic & Medicinal Chemistry, 2018)
